The record followed here is ChEMBL document CHEMBL1201862, “PubChem BioAssay data set” (2004).

The AC50 is the midpoint of the concentration-response curve, whichever way the signal moves. As usually defined, the EC50 is the concentration giving half of the maximal effect.

The subject of one test is HeLa. The test is described as follows: viability loss in HeLa cells – cell-based, 24 h, cherry-picked samples, cytotoxicity control, dose response (AID 504726).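 Also: potency for cytotoxicity as loss of luminescence signal.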 In kind it is functional. The following applies: Homo sapiens.
The next test addresses T1, ORF 73 (Human herpesvirus 8, UniProt O40947).
T1 sequence (O40947 whole entry): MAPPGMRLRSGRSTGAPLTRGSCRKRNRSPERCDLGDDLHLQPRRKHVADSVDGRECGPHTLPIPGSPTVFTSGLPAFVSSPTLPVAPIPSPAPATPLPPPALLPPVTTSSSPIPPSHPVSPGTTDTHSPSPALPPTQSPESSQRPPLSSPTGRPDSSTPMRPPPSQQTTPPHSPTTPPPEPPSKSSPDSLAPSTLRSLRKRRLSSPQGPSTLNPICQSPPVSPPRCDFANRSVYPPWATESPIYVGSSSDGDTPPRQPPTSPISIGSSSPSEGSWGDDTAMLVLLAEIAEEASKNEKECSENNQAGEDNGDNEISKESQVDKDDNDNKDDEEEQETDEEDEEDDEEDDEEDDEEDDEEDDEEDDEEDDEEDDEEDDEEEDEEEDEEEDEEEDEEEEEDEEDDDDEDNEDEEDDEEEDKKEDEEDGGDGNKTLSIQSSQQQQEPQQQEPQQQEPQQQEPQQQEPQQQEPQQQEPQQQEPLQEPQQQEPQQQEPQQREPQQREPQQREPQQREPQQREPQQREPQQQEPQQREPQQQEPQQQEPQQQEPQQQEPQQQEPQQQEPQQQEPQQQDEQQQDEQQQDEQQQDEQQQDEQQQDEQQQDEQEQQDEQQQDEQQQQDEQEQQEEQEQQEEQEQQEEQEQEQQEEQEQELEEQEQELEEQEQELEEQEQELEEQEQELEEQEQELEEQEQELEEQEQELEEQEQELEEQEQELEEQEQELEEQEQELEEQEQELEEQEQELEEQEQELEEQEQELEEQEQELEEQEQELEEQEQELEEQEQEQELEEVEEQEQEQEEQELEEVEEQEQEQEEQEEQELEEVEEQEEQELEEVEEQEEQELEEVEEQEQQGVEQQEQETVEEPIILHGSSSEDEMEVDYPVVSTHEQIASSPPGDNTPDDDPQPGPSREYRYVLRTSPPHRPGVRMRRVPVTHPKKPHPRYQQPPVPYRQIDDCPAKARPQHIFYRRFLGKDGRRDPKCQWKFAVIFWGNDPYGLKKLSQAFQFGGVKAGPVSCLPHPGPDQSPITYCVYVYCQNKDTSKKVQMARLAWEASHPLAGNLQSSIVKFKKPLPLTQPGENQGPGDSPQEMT
The test is described as follows: KSHV LANA DNA-binding disruption – biochemical, fluorescence polarization, cherry-picked samples, dose response (AID 504725).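 Also: fluorescence polarization of a labeled DNA duplex reporting LANA DNA binding; potency is for inhibitors that block LANA binding to the DNA.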 Set-up: species or system Human gammaherpesvirus 8.

A further test deals with T2, Insulin-degrading enzyme (Homo sapiens, UniProt P14735).
T2 sequence (P14735 whole entry): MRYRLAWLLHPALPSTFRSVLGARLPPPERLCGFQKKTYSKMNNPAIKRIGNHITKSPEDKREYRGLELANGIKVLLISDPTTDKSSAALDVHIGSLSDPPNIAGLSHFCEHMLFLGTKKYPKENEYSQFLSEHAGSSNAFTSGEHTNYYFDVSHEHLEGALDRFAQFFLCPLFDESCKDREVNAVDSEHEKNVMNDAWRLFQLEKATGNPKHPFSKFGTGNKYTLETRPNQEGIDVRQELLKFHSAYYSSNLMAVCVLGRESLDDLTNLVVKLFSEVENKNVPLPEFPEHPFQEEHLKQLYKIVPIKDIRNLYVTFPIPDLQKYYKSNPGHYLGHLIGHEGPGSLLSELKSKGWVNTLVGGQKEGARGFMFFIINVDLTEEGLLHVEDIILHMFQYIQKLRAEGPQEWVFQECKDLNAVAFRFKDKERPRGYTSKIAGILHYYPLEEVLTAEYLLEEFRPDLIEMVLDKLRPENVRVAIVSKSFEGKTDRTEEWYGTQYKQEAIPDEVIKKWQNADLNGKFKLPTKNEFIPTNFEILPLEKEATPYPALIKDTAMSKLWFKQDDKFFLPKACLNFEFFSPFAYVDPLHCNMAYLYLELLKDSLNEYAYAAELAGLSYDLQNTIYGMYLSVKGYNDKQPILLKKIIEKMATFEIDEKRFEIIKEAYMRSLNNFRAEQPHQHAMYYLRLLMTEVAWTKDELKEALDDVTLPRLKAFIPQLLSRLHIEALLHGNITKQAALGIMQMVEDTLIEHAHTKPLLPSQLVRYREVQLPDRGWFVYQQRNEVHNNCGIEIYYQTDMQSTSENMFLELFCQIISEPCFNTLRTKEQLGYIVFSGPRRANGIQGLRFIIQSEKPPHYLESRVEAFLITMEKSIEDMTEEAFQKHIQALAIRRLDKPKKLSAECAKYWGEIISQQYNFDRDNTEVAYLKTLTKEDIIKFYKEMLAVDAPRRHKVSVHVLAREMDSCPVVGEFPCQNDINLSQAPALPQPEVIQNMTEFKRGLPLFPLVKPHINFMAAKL
Briefly: recombinant IDE activation, cell-free – biochemical, fluorescence polarization, counter-screen for IDE activator project, dose response (AID 588681). (Fluorescence polarisation rises when a labelled molecule tumbles more slowly, as on binding a larger partner.)

Test [1] has as its target T3, RNA-binding protein pos-1 (Caenorhabditis elegans, UniProt G5EF15).
T3 sequence (G5EF15 whole entry): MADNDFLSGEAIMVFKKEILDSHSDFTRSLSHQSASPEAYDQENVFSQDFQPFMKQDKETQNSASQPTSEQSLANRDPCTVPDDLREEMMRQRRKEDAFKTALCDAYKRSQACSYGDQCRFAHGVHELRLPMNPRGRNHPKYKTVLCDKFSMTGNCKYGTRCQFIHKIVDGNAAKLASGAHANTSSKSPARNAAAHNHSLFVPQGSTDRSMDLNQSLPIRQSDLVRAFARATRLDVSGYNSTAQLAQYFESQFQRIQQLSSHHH
Briefly: disruptors of C. elegans POS-1 RNA interaction – biochemical, fluorescence polarization, dose response (AID 1964).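 Also: purified POS-1 fused to maltose binding protein made in E. coli; potency of compounds blocking POS-1 binding to fluorescent RNA.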

In test [2] the target is T4, Zinc finger protein mex-5 (Caenorhabditis elegans, UniProt Q9XUB2).
T4 sequence (Q9XUB2 whole entry): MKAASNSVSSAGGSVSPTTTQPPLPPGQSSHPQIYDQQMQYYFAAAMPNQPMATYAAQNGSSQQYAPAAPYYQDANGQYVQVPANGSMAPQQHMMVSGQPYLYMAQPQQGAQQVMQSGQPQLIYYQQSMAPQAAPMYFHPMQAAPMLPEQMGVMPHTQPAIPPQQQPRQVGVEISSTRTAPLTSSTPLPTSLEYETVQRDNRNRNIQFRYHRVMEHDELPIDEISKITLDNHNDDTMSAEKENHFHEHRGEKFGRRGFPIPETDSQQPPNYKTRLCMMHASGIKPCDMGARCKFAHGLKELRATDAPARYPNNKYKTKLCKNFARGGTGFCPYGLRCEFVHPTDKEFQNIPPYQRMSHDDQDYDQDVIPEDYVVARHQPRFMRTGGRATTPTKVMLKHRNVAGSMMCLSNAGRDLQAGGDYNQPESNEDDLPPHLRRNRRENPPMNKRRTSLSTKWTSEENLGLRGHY
The test is described as follows: potency of MEX-5 RNA-binding blockers – biochemical, C. elegans, fluorescence polarization, dose response (AID 1960).

The source made the active and inactive calls.

For `O=C1CCN2C=Nc3cccc4ccc1c2c34`, the AC50 with HeLa is 20.2 µM (active); at ORF 73, 1.42 µM (active). The EC50 at Insulin-degrading enzyme is > 54.7 µM (inactive).
As to `Oc1ccc2ccccc2c1/C=N/Nc1nnc(-c2ncc[nH]2)c2ccccc12`, the EC50 in test [1] is 48.7 µM (inconclusive); in test [2], 2.45 µM (active).
With `CC(C)C(C(=O)O)N1C(=O)/C(=C/C=C/c2ccco2)SC1=S` (stereo not drawn), the EC50 in test [1] was 11 µM (inconclusive); in test [2], 19.4 µM (inconclusive). On ORF 73, the AC50 is 45.6 µM (active).
